One assay deals with human cyclin D1-CDK4 (Homo sapiens, UniProt P11802). Kind of assay: FlashPlate kinase assay, cyclin D1-CDK4. As to conditions: Rb protein substrate, 1 μM ATP, 33P-ATP, 30 minutes room temperature; read-out: CDK4 IC50. The class given is biochemical.
The next assay addresses human cyclin E-CDK2 (Homo sapiens, UniProt P24941). Kind of assay: FlashPlate kinase assay, cyclin E-CDK2. The assay is classed as biochemical. To be noted: Rb protein substrate, 1 μM ATP, 33P-ATP, 30 minutes room temperature.
Another assay has as its target human cyclin B-CDK1 (Homo sapiens, UniProt P06493). Kind of assay: FlashPlate kinase assay, cyclin B-CDK1. The class given is biochemical. As to conditions: Rb protein substrate, 1 μM ATP, 33P-ATP, 30 minutes room temperature.
Assay [1] concerns HCT116, a colorectal carcinoma cell line. Kind of assay: Tetrazolium dye (MTT) proliferation assay. The class given is cell-based. As to conditions: Homo sapiens, HCT-116; HCT116 cells, inhibition of cell proliferation. The method, then:
Proliferation was evaluated by the tetrazolium dye assay according to the procedure of Denizot and Lang (Denizot, F. and Lang, R. J Immunol Methods 1986, 89, 271–277). The cell line used was HCT116, a colorectal carcinoma cell line obtained from the American Type Cell Culture Collection (ATCC; Rockville, Md.). The cells were grown in McCoy's 5A medium supplemented with 10% FCS and L-glutamine.
Cells were plated at the appropriate seeding density to give logarithmic growth over the course of the assay in a 96-well tissue culture plate. Plates were incubated overnight at 37° C. in a humidified incubator with 5% CO2. The next day, test compounds were serially diluted to four times the final concentration in the appropriate medium containing 1.2% DMSO. One-fourth final volume of each dilution was added in duplicate to the plates containing cells. The same volume of 1.2% DMSO in medium was added to a row of “control wells” such that the final concentration of DMSO in each well was 0.3%. Wells to which no cells were added served as the “blank.” Wells to which no inhibitor was added served as “no inhibitor control.” The plates were) returned to the incubator, and at set time points (determined by their growth curves) plates were analyzed as described below.
3-(4,5-dimethylthiazole-2-yl)-2,5-diphenyl-2H-tetrazolium bromide (thiazolyl blue; MTT; Sigma) was added to each well to yield a final concentration of 1 mg/ml. Plates were returned to the incubator for 2.5–3 hours at 37° C. The MTT-containing medium was removed and the resulting formazan metabolite was solubilized in 100% ethanol with shaking for 15 minutes at room temperature. Absorbance readings were taken in a microtiter plate reader (Dynatech and Molecular Devices plate readers were used interchangeably) at a wavelength of 570 nm with a 650 nm reference. Percent inhibition (% INH) is calculated by subtracting the absorbance of the blank well from all wells, then subtracting the ratio of the average absorbance of each test duplicate (SAVE) by the average of the controls (CAVE) from 1.00. The final number is then multiplied by 100 (% INH=(1.00−SAVE/CAVE)×100). The concentration at which 50% inhibition of cell proliferation is obtained (the IC50) is determined from the linear regression of a plot of the logarithm of the concentration versus percent inhibition.

Sequence of human cyclin B-CDK1 (P06493 whole entry): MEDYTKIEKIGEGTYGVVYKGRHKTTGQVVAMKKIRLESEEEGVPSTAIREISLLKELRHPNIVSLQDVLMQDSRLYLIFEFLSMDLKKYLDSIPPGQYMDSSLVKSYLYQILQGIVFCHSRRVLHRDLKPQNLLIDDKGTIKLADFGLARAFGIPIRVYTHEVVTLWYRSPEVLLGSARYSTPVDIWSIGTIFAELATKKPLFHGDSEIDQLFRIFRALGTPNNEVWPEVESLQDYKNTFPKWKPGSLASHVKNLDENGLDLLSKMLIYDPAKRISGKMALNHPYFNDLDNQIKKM
Sequence of human cyclin B-CDK1 (P14635 whole entry partner): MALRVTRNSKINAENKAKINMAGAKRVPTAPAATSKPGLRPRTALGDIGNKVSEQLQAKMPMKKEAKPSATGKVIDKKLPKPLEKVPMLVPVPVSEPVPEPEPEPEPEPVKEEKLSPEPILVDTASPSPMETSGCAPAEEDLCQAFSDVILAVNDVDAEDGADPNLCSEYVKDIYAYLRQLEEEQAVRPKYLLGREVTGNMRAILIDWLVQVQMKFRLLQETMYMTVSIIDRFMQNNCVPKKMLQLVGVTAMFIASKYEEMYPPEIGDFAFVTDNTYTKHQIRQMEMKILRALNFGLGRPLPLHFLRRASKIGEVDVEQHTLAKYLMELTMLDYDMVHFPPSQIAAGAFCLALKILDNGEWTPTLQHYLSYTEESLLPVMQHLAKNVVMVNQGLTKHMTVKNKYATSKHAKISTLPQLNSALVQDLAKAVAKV
Sequence of human cyclin D1-CDK4 (P11802 whole entry): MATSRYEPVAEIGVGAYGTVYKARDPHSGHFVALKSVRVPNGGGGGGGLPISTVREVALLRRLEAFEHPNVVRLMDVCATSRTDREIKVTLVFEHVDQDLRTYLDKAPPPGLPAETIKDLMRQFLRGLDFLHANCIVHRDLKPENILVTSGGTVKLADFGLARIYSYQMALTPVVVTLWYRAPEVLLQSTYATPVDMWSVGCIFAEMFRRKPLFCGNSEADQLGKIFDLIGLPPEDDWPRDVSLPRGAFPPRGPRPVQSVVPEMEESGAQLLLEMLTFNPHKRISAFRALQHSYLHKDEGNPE
Sequence of human cyclin D1-CDK4 (P24385 whole entry partner): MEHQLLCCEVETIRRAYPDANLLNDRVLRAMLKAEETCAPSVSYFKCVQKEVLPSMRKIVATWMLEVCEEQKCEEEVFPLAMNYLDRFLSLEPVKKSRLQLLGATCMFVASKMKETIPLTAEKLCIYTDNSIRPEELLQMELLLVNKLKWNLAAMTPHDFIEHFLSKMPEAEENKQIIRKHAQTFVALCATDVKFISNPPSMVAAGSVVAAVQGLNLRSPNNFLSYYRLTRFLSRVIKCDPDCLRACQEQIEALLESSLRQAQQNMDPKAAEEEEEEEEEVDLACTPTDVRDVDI

The IC50 is the midpoint of a concentration-inhibition curve. Turning to `COc1ccc(C(=O)c2sc(Nc3ccc(N4CCC(N5CCCC5)CC4)cc3)nc2N)cc1[N+](=O)[O-]` [Example 107, {4-Amino-2-[4-(4-pyrrolidin-1-yl-piperidin-1-yl)-phenylamino]-thiazol-5-yl}-(4-methoxy-3-nitro-phenyl)-methanone], the IC50 stood at 38 nM on human cyclin D1-CDK4, 2390 nM on human cyclin E-CDK2, 1000 nM on human cyclin B-CDK1 and 3680 nM in assay [1].
The corresponding values for `Nc1nc(Nc2ccc(N3CCC(N4CCCC4)CC3)cc2)sc1C(=O)c1ccc2c(c1)OCO2` [Example 25, {4-Amino-2-[4-(4-pyrrolidin-1-yl-piperidin-1-yl)-phenylamino]-thiazol-5-yl}-benzo[1,3]dioxol-5-yl-methanone] are 17 nM, 2890 nM, 216 nM and 2000 nM.
Take `Nc1nc(Nc2ccc(N3CCC(N4CCCCC4)CC3)cc2)sc1C(=O)c1cccc(F)c1` [Example 30, [4-Amino-2-(4-[1,4′]bipiperidinyl-1′-yl-phenylamino)-thiazol-5-yl]-(3-fluoro-phenyl)-methanone]: the IC50 turned out to be 14 nM on human cyclin D1-CDK4, 545 nM at human cyclin E-CDK2, 176 nM against human cyclin B-CDK1 and 840 nM in assay [1].
The corresponding values for `Nc1nc(Nc2ccc(N3CCC(N4CCCCC4)CC3)cc2)sc1C(=O)c1ccc2c(c1)OCCO2` [Example 33, [4-Amino-2-(4-[1,4′]bipiperidinyl-1′-yl-phenylamino)-thiazol-5-yl]-(2,3-dihydro-benzo[1,4]dioxin-6-yl)-methanone] are 9 nM, 4950 nM, 950 nM and 1680 nM.
In the case of `CN(C)C1CCN(c2ccc(Nc3nc(N)c(C(=O)c4ccc5c(c4)OCCO5)s3)cc2)CC1` [Example 44, {4-Amino-2-[4-(4-dimethylamino-piperidin-1-yl)-phenylamino]-thiazol-5-yl}-(2,3-dihydro-benzo[1,4]dioxin-6-yl)-methanone], the IC50 at human cyclin D1-CDK4 turned out to be 16 nM; at human cyclin E-CDK2 it was 5130 nM; on human cyclin B-CDK1 it was 1250 nM; in assay [1], 1720 nM.
`COc1ccc(C(=O)c2sc(Nc3ccc(N4CCC(N(C)C)CC4)cc3)nc2N)cc1[N+](=O)[O-]` [Example 113, {4-Amino-2-[4-(4-dimethylamino-piperidin-1-yl)-phenylamino]-thiazol-5-yl}-(4-methoxy-3-nitro-phenyl)-methanone]: the IC50 on human cyclin D1-CDK4 was 45 nM; at human cyclin E-CDK2, 7270 nM; at human cyclin B-CDK1, 940 nM; in assay [1], 1740 nM.
Regarding `COc1cccc(C(=O)c2sc(Nc3ccc(N4CCC(N5CCCCC5)CC4)cc3)nc2N)c1` [Example 34, [4-Amino-2-(4-[1,4′]bipiperidinyl-1′-yl-phenylamino)-thiazol-5-yl]-(3-methoxy-phenyl)-methanone], the IC50 was determined as 3640 nM at human cyclin D1-CDK4, 952 nM at human cyclin E-CDK2, 1680 nM against human cyclin B-CDK1 and 8 nM in assay [1].
The corresponding values for `CN(C)C1CCN(c2ccc(Nc3nc(N)c(C(=O)c4cccc(F)c4)s3)cc2)CC1` [Example 41, {4-Amino-2-[4-(4-dimethylamino-piperidin-1-yl)-phenylamino]-thiazol-5-yl}-(3-fluoro-phenyl)-methanone] are 2 nM, 888 nM, 268 nM and 1410 nM.
The corresponding values for `Nc1nc(Nc2ccc(N3CCC(N4CCCC(O)C4)CC3)cc2)sc1C(=O)c1ccc(O)cc1` (centres unmarked) [Example 40, {4-Amino-2-[4-(3-hydroxy-[1,4′]bipiperidinyl-1′-yl)-phenylamino]-thiazol-5-yl}-(4-hydroxy-phenyl)-methanone] are 52 nM, 5110 nM, 640 nM and 9480 nM.
The corresponding values for `CN(C)C1CCN(c2ccc(Nc3nc(N)c(C(=O)c4cccc([N+](=O)[O-])c4)s3)cc2)CC1` [Example 92, {4-Amino-2-[4-(4-dimethylamino-piperidin-1-yl)-phenylamino]-thiazol-5-yl}-(3-nitro-phenyl)-methanone] are 15 nM, 1600 nM, 870 nM and 2900 nM.
As for `Nc1nc(Nc2ccc(N3CCC(N4CCCC(O)C4)CC3)cc2)sc1C(=O)c1cccc(O)c1` (centres unmarked) [Example 81, {4-Amino-2-[4-(3-hydroxy-[1,4′]bipiperidinyl-1′-yl)-phenylamino]-thiazol-5-yl}-(3-hydroxy-phenyl)-methanone], the IC50 on human cyclin D1-CDK4 was found to be 19 nM; against human cyclin E-CDK2, 3450 nM; on human cyclin B-CDK1, 1610 nM; in assay [1] it was 6020 nM.
With `CN(C)C1CCN(c2ccc(Nc3nc(N)c(C(=O)c4cccc(C5CC5)c4)s3)cc2)CC1` [Example 120, {4-Amino-2-[4-(4-dimethylamino-piperidin-1-yl)-phenylamino]-thiazol-5-yl}-(3-cyclopropyl-phenyl)-methanone], the IC50 came out at 23 nM on human cyclin D1-CDK4, 2580 nM on human cyclin E-CDK2, 1870 nM against human cyclin B-CDK1 and 3910 nM in assay [1].
The corresponding values for `CCNC1CCN(c2ccc(Nc3nc(N)c(C(=O)c4ccc(OC)c(F)c4)s3)cc2)CC1` [Example 136, {4-Amino-2-[4-(4-ethylamino-piperidin-1-yl)-phenylamino]-thiazol-5-yl}-(3-fluoro-4-methoxy-phenyl)-methanone] are 50 nM, 9430 nM, 1560 nM and 3260 nM.
The corresponding values for `COc1ccc(C(=O)c2sc(Nc3ccc(N4CCC(N5CCCC5)CC4)cc3)nc2N)cc1F` [Example 23] are 12 nM, 2890 nM, 1280 nM and 1750 nM.
The corresponding values for `CCc1cccc(C(=O)c2sc(Nc3ccc(N4CCC(N5CCOCC5)CC4)cc3)nc2N)c1` [Example 116, {4-Amino-2-[4-(4-morpholin-4-yl-piperidin-1-yl)-phenylamino]-thiazol-5-yl}-(3-ethyl-phenyl)-methanone] are 15 nM, 750 nM, 5590 nM and 2550 nM.
With `CCc1cccc(C(=O)c2sc(Nc3ccc(N4CCC(N5CCCC5)CC4)cc3)nc2N)c1` [Example 114, {4-Amino-2-[4-(4-pyrrolidin-1-yl-piperidin-1-yl)-phenylamino]-thiazol-5-yl}-(3-ethyl-phenyl)-methanone], the IC50 on human cyclin D1-CDK4 turned out to be 12 nM; against human cyclin E-CDK2 it was 945 nM; on human cyclin B-CDK1, 2710 nM; in assay [1], 1370 nM.
The corresponding values for `CCNC1CCN(c2ccc(Nc3nc(N)c(C(=O)c4ccc(OC)c(F)c4)s3)cc2)C1` (centres unmarked) [Example 133, {4-Amino-2-[4-(3-ethylamino-pyrrolidin-1-yl)-phenylamino]-thiazol-5-yl}-(3-fluoro-4-methoxy-phenyl)-methanone] are 66 nM, 3270 nM, 1860 nM and 1020 nM.
Regarding `CCOc1cccc(C(=O)c2sc(Nc3ccc(N4CCC(N5CCCC5)CC4)cc3)nc2N)c1` [Example 118, {4-Amino-2-[4-(4-pyrrolidin-1-yl-piperidin-1-yl)-phenylamino]-thiazol-5-yl}-(3-ethoxy-phenyl)-methanone], the IC50 on human cyclin D1-CDK4 came to 31 nM; at human cyclin E-CDK2 it was 3240 nM; on human cyclin B-CDK1 it was 1530 nM; in assay [1], 4150 nM.
The corresponding values for `Nc1nc(Nc2ccc(N3CCC(N4CCCC4)CC3)cc2)sc1C(=O)c1cccc(F)c1` [Example 24, {4-Amino-2-[4-(4-pyrrolidin-1-yl-piperidin-1-yl)-phenylamino]-thiazol-5-yl}-(3-fluoro-phenyl)-methanone] are 32 nM, 860 nM, 270 nM and 1220 nM.
Consider `COc1ccc(C(=O)c2sc(Nc3ccc(N4CCC(N5CCCC(O)C5)CC4)cc3)nc2N)cc1F` (centres unmarked) [Example 36, {4-Amino-2-[4-(3-hydroxy-[1,4′]bipiperidinyl-1′-yl)-phenylamino]-thiazol-5-yl}-(3-fluoro-4-methoxy-phenyl)-methanone], for which the half-maximal inhibitory concentration (IC50) at human cyclin D1-CDK4 was 3630 nM; against human cyclin E-CDK2, 3000 nM; at human cyclin B-CDK1, 1730 nM; in assay [1], 9 nM.

Source of the values: patent publication US7211576B2, “Diaminothiazoles” (Hoffmann-La Roche Inc., priority 2004, dated 2007).
